Target: T1, AXL kinase (Homo sapiens, UniProt P30530)
T1 construct: purchased Invitrogen PV4803
T1 sequence (P30530 26-894): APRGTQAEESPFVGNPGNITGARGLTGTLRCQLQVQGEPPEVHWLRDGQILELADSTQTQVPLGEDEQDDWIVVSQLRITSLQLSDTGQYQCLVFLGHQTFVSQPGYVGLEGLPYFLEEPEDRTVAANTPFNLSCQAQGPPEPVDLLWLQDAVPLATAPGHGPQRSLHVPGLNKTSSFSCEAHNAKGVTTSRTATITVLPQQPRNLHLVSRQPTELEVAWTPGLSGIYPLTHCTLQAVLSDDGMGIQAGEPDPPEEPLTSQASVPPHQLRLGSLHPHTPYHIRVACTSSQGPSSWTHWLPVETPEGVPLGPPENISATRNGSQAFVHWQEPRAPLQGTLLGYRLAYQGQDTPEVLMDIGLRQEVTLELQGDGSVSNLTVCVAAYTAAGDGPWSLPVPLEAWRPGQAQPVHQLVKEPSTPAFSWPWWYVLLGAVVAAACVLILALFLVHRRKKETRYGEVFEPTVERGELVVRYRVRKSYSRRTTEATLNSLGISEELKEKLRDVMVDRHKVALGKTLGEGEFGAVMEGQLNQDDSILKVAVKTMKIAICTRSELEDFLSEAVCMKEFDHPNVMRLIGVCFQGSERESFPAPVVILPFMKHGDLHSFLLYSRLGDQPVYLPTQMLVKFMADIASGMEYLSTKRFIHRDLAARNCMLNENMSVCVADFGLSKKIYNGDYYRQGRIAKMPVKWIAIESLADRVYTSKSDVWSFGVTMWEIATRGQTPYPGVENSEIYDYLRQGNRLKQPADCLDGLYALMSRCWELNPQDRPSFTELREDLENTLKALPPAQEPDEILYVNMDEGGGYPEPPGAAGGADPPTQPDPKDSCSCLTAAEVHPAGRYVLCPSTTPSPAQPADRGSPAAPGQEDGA
Experiment: IC50 test on AXL kinase (Z′-LYTE FRET kinase activity detection)
Type: biochemical
Conditions: Z′-LYTE FRET peptide assay, 1 h reaction
Description: Kinase activity detection: The activity of compounds on kinases was detected by a secondary reaction which used the Z′-LYTE™ technique (a detection using fluorescence, enzyme coupling, and based on differences in susceptibility of phosphorylated and non-phosphorylated polypeptides to proteolytic cleavage), followed the fluorescence resonance energy transfer (FRET) principle, and used Z′-LYTE™ FRET peptide substrates (Invitrogen, Z′-LYTE™ KINASE ASSAY KIT—TYR 2 PEPTIDE, PV3191). AXL kinase (invitrogen, PV4803) was diluted stepwise, FRET peptide was then added, followed by ATP, then by compounds at different concentrations, reacted for 1 h, site-specific proteases were then added to recognize and cleave non-phosphorylated FRET peptides, reacted for 1 h, and […] at 445 nm and 520 nm were detected using excitation wavelength of 400 nm.

Row | Structure (SMILES) | IC50 [nM]
1 | Cc1c(C(=O)Nc2ccc(Oc3ncnc4[nH]cc(-c5ccccc5)c34)c(F)c2)c(=O)c2cc(Cl)ccc2n1C [TL50053, 6-chloro-N-(3-fluoro-4-((5-phenyl-7H-pyrrolo[2,3-d]pyrimidin-4-yl)oxy)phenyl)-1,2-dimethyl-4-oxo-1,4-dihydroquinoline-3-carboxamide] | 1890
2 | CCCn1c(C)c(C(=O)Nc2ccc(Oc3ncnc4[nH]cc(-c5ccccc5)c34)c(F)c2)c(=O)c2cc(C)ccc21 [TL4800104, N-(3-fluoro-4-(5-phenyl-7H-pyrrolo[2,3-d]pyrimidin-4-yloxy)phenyl)-2,6-dimethyl-4-oxo-1-propyl-1,4-dihydroquinoline-3-carboxamide] | 533
3 | Cc1c(C(=O)Nc2ccc(Oc3ncnc4[nH]cc(-c5ccccc5)c34)c(F)c2)c(=O)c2cc(-c3cnn(C4CCNCC4)c3)ccc2n1C [TL50180] | > 10000
4 | Cc1c(C(=O)Nc2ccc(Oc3ncnc4[nH]cc(-c5ccccc5)c34)c(F)c2)c(=O)c2cc(-c3ccccc3)ccc2n1C [TL50163, N-(3-fluoro-4-(5-phenyl-7H-pyrrolo[2,3-d]pyrimidin-4-yloxy)phenyl)-1,2-dimethyl-4-oxo-6-phenyl-1,4-dihydroquinoline-3-carboxamide] | > 10000
5 | COc1cc2ncnc(Oc3ccc(NC(=O)c4cn(C5CC5)c5c(F)c(N6CC(C)NC(C)C6)c(F)c(N)c5c4=O)cc3F)c2cc1OC (centres unmarked) [TL4830044, 5-amino-1-cyclopropyl-N-(4-(6,7-dimethoxyquinazolin-4-yloxy)-3-fluorophenyl)-7-(3,5-dimethylpiperazin-1-yl)-6,8-difluoro-4-oxo-1,4-dihydroquinoline-3-carboxamide] | 503
6 | Cc1c(C(=O)Nc2ccc(Oc3ncnc4[nH]cc(-c5ccccc5)c34)c(F)c2)c(=O)c2ccc(C(F)(F)F)cc2n1C [TL50086, N-(3-fluoro-4-(5-phenyl-7H-pyrrolo[2,3-d]pyrimidin-4-yloxy)phenyl)-1,2-dimethyl-4-oxo-7-(trifluoromethyl)-1,4-dihydroquinoline-3-carboxamide] | > 10000
7 | Cc1ccc2c(c1)c(=O)c(C(=O)Nc1ccc(Oc3ncnc4[nH]cc(-c5ccccc5)c34)c(F)c1)c(C)n2-c1ccccc1 [GDL5000083, N-(3-fluoro-4-((5-phenyl-7H-pyrrolo[2,3-d]pyrimidine-4-yl)oxy)phenyl)-2,6-dimethyl-4-oxo-1-phenyl-1,4-hydroquinoline-3-carboxamide] | 618
8 | Cc1c(C(=O)Nc2ccc(Oc3ccnc4[nH]ccc34)c(F)c2)c(=O)c2cc(Cl)ccc2n1C [TL50090, N-(4-((1H-pyrrolo[2,3-b]pyridin-4-yl)oxy)-3-fluorophenyl)-6-chloro-1,2-dimethyl-4-oxo-1,4-dihydroquinoline-3-carboxamide] | 2630
9 | Cc1ccc2[nH]c(C)c(C(=O)Nc3ccc(Oc4ncnc5[nH]cc(-c6ccccc6)c45)c(F)c3)c(=O)c2c1 [TL4800025, N-(3-fluoro-4-((5-phenyl-7H-pyrrolo[2,3-d]pyrimidin-4-yl)oxy)phenyl)-2,6-dimethyl-4-oxo-1,4-dihydroquinoline-3-carboxamide] | 557
10 | CCc1ccc2c(c1)c(=O)c(C(=O)Nc1ccc(Oc3ccnc(C(N)=O)c3)c(F)c1)c(C)n2C [GDL5000045, N-(4-(2-carbamoylpyridin-4-yloxy)-3-fluorophenyl)-6-ethyl-1,2-dimethyl-4-oxo-1,4-dihydroquinoline-3-carboxamide] | 4380
11 | Cc1c(C(=O)Nc2ccc(Oc3ncnc4[nH]cc(-c5ccccc5)c34)c(F)c2)c(=O)c2cc(C3=CCCC3)ccc2n1C [TL50160, 6-cyclopentenyl-N-(3-fluoro-4-((5-phenyl-7H-pyrrolo[2,3-d]pyrimidin-4-yl)oxy)phenyl)-1,2-dimethyl-4-oxo-1,4-dihydroquinoline-3-carboxamide] | 4530

Now those with a lower IC50, led by results:

Row | IC50 [nM] | Structure (SMILES)
12 | 476 | CCCCn1c(C)c(C(=O)Nc2ccc(Oc3ncnc4[nH]cc(-c5ccccc5)c34)c(F)c2)c(=O)c2cc(C)ccc21 [TL4800080, 1-butyl-N-(3-fluoro-4-((5-phenyl-7H-pyrrolo[2,3-d]pyrimidin-4-yl)oxy)phenyl)-2,6-dimethyl-4-oxo-1,4-dihydroquinoline-3-carboxamide]
13 | 429 | CC1COc2c(N3CCN(C)CC3)c(F)cc3c(=O)c(C(=O)Nc4ccc(Oc5ncnc6[nH]cc(-c7ccccc7)c56)c(F)c4)cn1c23 (centres unmarked) [TL4800088, 9-fluoro-N-(3-fluoro-4-((5-phenyl-7H-pyrrolo[2,3-d]pyrimidin-4-yl)oxy)phenyl)-3-methyl-10-(4-methylpiperazin-1-yl)-7-oxo-3,7-dihydro-2H-[1,4]oxazino[2,3,4-ij]quinoline-6-carboxamide]
14 | 224 | COc1cc2ncnc(Oc3ccc(NC(=O)c4cn(CCF)c5c(F)c(N6CCN(C)CC6)c(F)cc5c4=O)cc3F)c2cc1OC [TL4830040, N-(4-(6,7-dimethoxyquinazolin-4-yloxy)-3-fluorophenyl)-6,8-difluoro-1-(2-fluoroethyl)-7-(4-methylpiperazin-1-yl)-4-oxo-1,4-dihydroquinoline-3-carboxamide]
15 | 211 | Cc1c(C(=O)Nc2ccc(Oc3ccnc4[nH]cc(-c5ccccc5)c34)c(F)c2)c(=O)c2cc(Cl)ccc2n1C [TL50128, 6-chloro-N-(3-fluoro-4-((3-phenyl-1H-pyrrolo[2,3-b]pyridin-4-yl)oxy)phenyl)-1,2-dimethyl-4-oxo-1,4-dihydroquinoline-3-carboxamide]
16 | 129 | Cc1cc2c3c(c1)c(=O)c(C(=O)Nc1ccc(Oc4ncnc5[nH]cc(-c6ccccc6)c45)c(F)c1)cn3CCC2 [TL4800160, N-(3-fluoro-4-((5-phenyl-7H-pyrrolo[2,3-d]pyrimidin-4-yl)oxy)phenyl)-9-methyl-1-oxo-1,5,6,7-tetrahydropyrido[3,2,1-ij]quinoline-2-carboxamide]
17 | 105 | CCc1ccc2c(c1)c(=O)c(C(=O)Nc1ccc(Oc3ncnc4[nH]cc(-c5ccccc5)c34)cc1)c(C)n2C [TL4830014, 6-ethyl-1,2-dimethyl-4-oxo-N-(4-((5-phenyl-7H-pyrrolo[2,3-d]pyrimidin-4-yl)oxy)phenyl)-1,4-dihydroquinoline-3-carboxamide]
18 | 99 | COc1ccc2c(c1)c(=O)c(C(=O)Nc1ccc(Oc3ncnc4[nH]cc(-c5ccccc5)c34)c(F)c1)c(C)n2C [TL4800005, N-(3-fluoro-4-((5-phenyl-7H-pyrrolo[2,3-d]pyrimidin-4-yl)oxy)phenyl)-6-methoxy-1,2-dimethyl-4-oxo-1,4-dihydroquinoline-3-carboxamide]
19 | 81 | COc1cc2ncnc(Oc3ccc(NC(=O)c4cn(-c5ccc(F)cc5F)c5nc(N6CCC(N)C6)c(F)cc5c4=O)cc3F)c2cc1OC (centres unmarked) [GDL5000101, 7-(3-aminopyrrolidin-1-yl)-1-(2,4-difluorophenyl)-N-(4-(6,7-dimethoxyquinazolin-4-yloxy)-3-fluorophenyl)-6-fluoro-4-oxo-1,4-dihydro-1,8-naphthyridine-3-carboxamide]
20 | 61 | CCCc1ccc2c(c1)c(=O)c(C(=O)Nc1ccc(Oc3ncnc4[nH]cc(-c5ccccc5)c34)c(F)c1)c(C)n2C [TL4800116, N-(3-fluoro-4-((5-phenyl-7H-pyrrolo[2,3-d]pyrimidin-4-yl)oxy)phenyl)-1,2-dimethyl-4-oxo-6-propyl-1,4-dihydroquinoline-3-carboxamide]
21 | 56 | CCc1ccc2c(c1)c(=O)c(C(=O)Nc1ccc(Oc3ncnc4[nH]cc(-c5ccccc5)c34)c(F)c1)cn2C [TL4800178, 6-ethyl-N-(3-fluoro-4-(5-phenyl-7H-pyrrolo[2,3-d]pyrimidin-4-yloxy)phenyl)-1-methyl-4-oxo-1,4-dihydroquinoline-3-carboxamide]
22 | 14.8 | CCc1cc2c(=O)c(C(=O)Nc3ccc(Oc4ncnc5cc(OC)c(OC)cc45)c(F)c3)c(C)n(C)c2cc1N1CCN(C)CC1 [TL4830071, N-(4-(6,7-dimethoxyquinazolin-4-yloxy)-3-fluorophenyl)-6-ethyl-1,2-dimethyl-7-(4-methylpiperazin-1-yl)-4-oxo-1,4-dihydroquinoline-3-carboxamide]
23 | 1.1 | CCc1ccc2c(c1)c(=O)c(C(=O)Nc1ccc(Oc3ncnc4cc(OCCCN(C)C)c(OC)cc34)c(F)c1)c(C)n2C [TL4830076, N-(4-(7-(3-(dimethylamino)propoxy)-6-methoxyquinazolin-4-yloxy)-3-fluorophenyl)-6-ethyl-1,2-dimethyl-4-oxo-1,4-dihydroquinoline-3-carboxamide]

Reference: patent US10683278B2 (JINAN UNIVERSITY, priority 2015, dated 2020)
